Like-named read-outs stand apart in the source and are kept apart here. Numbered stars: 1 amine (or outer) side, 2 acyl side, 3 side chain; on linkers, the order of the positions; unused ones are H or OH. Bridge positions count the residues as written; N and C are the ends. Square brackets hold non-standard residues; d marks the D form. Peptide text beside a SMILES is read from it. * marks the point of attachment. hTyr(3S-OH,4S-OH,3'-OSO3H) = N[C@H](C(=O)O)[C@H](O)[C@@H](O)c1ccc(O)c(OS(=O)(=O)O)c1; Orn(4R-OH,5R-OH) = O=C([C@H](C[C@@H](O)[C@@H](O)N[*:3])N[*:1])[*:2]; Pro(3S-OH,4S-Me) = C[C@H]1CN[C@H](C(=O)O)[C@H]1O; X1 = CCCCCOc1ccc(-c2cc(-c3ccc(C(=O)*)cc3)no2)cc1; Gln(3R-OH) = NC(=O)C[C@@H](O)[C@H](N)C(=O)O; Hyp = O=C(O)[C@@H]1C[C@@H](O)CN1
Test system: C. glabrata isolates
Assay: Broth microdilution susceptibility (CLSI M27-A3) at different medium pH
Assay type: cell-based, Candida glabrata
Settings: for MIC range: 50% inhibition, 10 vaginal isolates; for MIC50 / MIC90 / MIC: Nakaseomyces glabratus, 24 h
Method: Ten strains each of C. glabrata and C. albicans vaginal isolates were tested. The strains were obtained from recent clinical trial patients with vulvovaginal candidiasis (VVC) prior to treatment. Candida strains were obtained from the Mycology Reference Library (MRL) at Case Western Reserve University School of Medicine, Ohio, United States.
Susceptibility testing was performed using a broth microdilution method, according to CLSI M27-A3 guidelines (CLSI. 2008. Reference Method for Broth Dilution Antifungal Susceptibility Testing of Yeasts; Approved Standard—Third Edition. Clinical and Laboratory Standards Institute, CLSI document M27-A3). Antifungals and concentrations tested were SCY-078 and micafungin (both at concentrations within the range of 0.015 to 8 μg/ml) and fluconazole (at concentrations within the range of 0.125 to 64 μg/ml). A 0.1-ml C. albicans and C. glabrata inoculum of 0.5-2.5×10^3 blastospores/ml in RPMI 1640 medium was added to each microdilution well. ATCC strains of Candida parapsilosis and Candida krusei QC isolates were also included concurrently to ensure quality control. Antifungal susceptibility testing was carried out for each isolate in RPMI 1640 at pH 7 (to mimic RPMI medium used in testing the susceptibility of yeast by the CLSI M-27A3 document), pH 5.7, and pH 4.5 (to mimic the pH of the vaginal cavity) by adjusting the pH of the media using NaOH or HCl. […] Agents Chemother., 43: 1383-1386 (1999).
[…] SCY-078 powder was manufactured by Avista, Laboratories, NC. Micafungin and fluconazole were sourced from LGM Pharma.

CCCCCOc1ccc(-c2cc(-c3ccc(C(=O)N[C@H]4C[C@@H](O)[C@@H](O)NC(=O)[C@@H]5[C@@H](O)[C@@H](C)CN5C(=O)[C@H]([C@H](O)CC(N)=O)NC(=O)[C@H]([C@H](O)[C@@H](O)c5ccc(O)c(OS(=O)(=O)O)c5)NC(=O)[C@@H]5C[C@@H](O)CN5C(=O)[C@H]([C@@H](C)O)NC4=O)cc3)no2)cc1 [Micafungin, reference compound] (X1-[Orn(4R-OH,5R-OH)]T[Hyp][hTyr(3S-OH,4S-OH,3'-OSO3H)][Gln(3R-OH)][Pro(3S-OH,4S-Me)]; lactam 1-C)
0.5 µg/mL: MIC90 (pH 7) | MIC (pH 7, read-out: MIC (50% inhibition), C. glabrata MRL 32232, pH 7.0, 24 hours) | MIC (pH 7, read-out: MIC (50% inhibition), C. glabrata MRL 32626, pH 7.0, 24 hours) | MIC (pH 7, read-out: MIC (50% inhibition), C. glabrata MRL 33960, pH 7.0, 24 hours)
0.25 µg/mL: MIC range (pH 4.5, 24 h) | MIC range (pH 5.72, 24 h) | MIC50 (pH 4.5) | MIC90 (pH 4.5) | MIC (pH 4.5, read-out: MIC (50% inhibition), C. glabrata MRL 32075, pH 4.5, 24 hours) | MIC (pH 4.5, read-out: MIC (50% inhibition), C. glabrata MRL 32232, pH 4.5, 24 hours) | MIC (pH 4.5, read-out: MIC (50% inhibition), C. glabrata MRL 32626, pH 4.5, 24 hours) | MIC (pH 4.5, read-out: MIC (50% inhibition), C. glabrata MRL 32993, pH 4.5, 24 hours) | MIC (pH 4.5, read-out: MIC (50% inhibition), C. glabrata MRL 33204, pH 4.5, 24 hours) | MIC (pH 4.5, read-out: MIC (50% inhibition), C. glabrata MRL 33960, pH 4.5, 24 hours) | MIC (pH 4.5, read-out: MIC (50% inhibition), C. glabrata MRL 33961, pH 4.5, 24 hours) | MIC (pH 4.5, read-out: MIC (50% inhibition), C. glabrata MRL 34339, pH 4.5, 24 hours) | MIC (pH 4.5, read-out: MIC (50% inhibition), C. glabrata MRL 34407, pH 4.5, 24 hours) | MIC (pH 4.5, read-out: MIC (50% inhibition), C. glabrata MRL 34576, pH 4.5, 24 hours) | MIC50 (pH 5.72) | MIC90 (pH 5.72) | MIC (pH 5.72, read-out: MIC (50% inhibition), C. glabrata MRL 32075, pH 5.72, 24 hours) | MIC (pH 5.72, read-out: MIC (50% inhibition), C. glabrata MRL 32232, pH 5.72, 24 hours) | MIC (pH 5.72, read-out: MIC (50% inhibition), C. glabrata MRL 32626, pH 5.72, 24 hours) | MIC (pH 5.72, read-out: MIC (50% inhibition), C. glabrata MRL 32993, pH 5.72, 24 hours) | MIC (pH 5.72, read-out: MIC (50% inhibition), C. glabrata MRL 33204, pH 5.72, 24 hours) | MIC (pH 5.72, read-out: MIC (50% inhibition), C. glabrata MRL 33960, pH 5.72, 24 hours) | MIC (pH 5.72, read-out: MIC (50% inhibition), C. glabrata MRL 33961, pH 5.72, 24 hours) | MIC (pH 5.72, read-out: MIC (50% inhibition), C. glabrata MRL 34339, pH 5.72, 24 hours) | MIC (pH 5.72, read-out: MIC (50% inhibition), C. glabrata MRL 34407, pH 5.72, 24 hours) | MIC (pH 5.72, read-out: MIC (50% inhibition), C. glabrata MRL 34576, pH 5.72, 24 hours) | MIC50 (pH 7) | MIC (pH 7, read-out: MIC (50% inhibition), C. glabrata MRL 32075, pH 7.0, 24 hours) | MIC (pH 7, read-out: MIC (50% inhibition), C. glabrata MRL 32993, pH 7.0, 24 hours) | MIC (pH 7, read-out: MIC (50% inhibition), C. glabrata MRL 33204, pH 7.0, 24 hours) | MIC (pH 7, read-out: MIC (50% inhibition), C. glabrata MRL 33961, pH 7.0, 24 hours) | MIC (pH 7, read-out: MIC (50% inhibition), C. glabrata MRL 34339, pH 7.0, 24 hours) | MIC (pH 7, read-out: MIC (50% inhibition), C. glabrata MRL 34407, pH 7.0, 24 hours) | MIC (pH 7, read-out: MIC (50% inhibition), C. glabrata MRL 34576, pH 7.0, 24 hours)
0.25 to 0.5 µg/mL: MIC range (pH 7.0, 24 h)
